Laboratory results: US20220016092A1, “METHODS FOR TREATING SYMPTOMS AND DISORDERS ASSOCIATED WITH LYSOSOMAL STORAGE DISEASES” (GENZYME CORPORATION, priority 2019, published 2022)

How the values were obtained:
[1] = tested on: GM3 expression in B16 mouse melanoma cells; test: GM3 fluorescent-linked immunosorbent assay (FLISA), B16 cells; format: cell-based; details: 48 hours
From the text: (§1) Inhibition of glucosylceramide synthase activity can be measured with one or more assays. A first assay is a microsomal assay that directly measures the conversion of ceramide to glucosylceramide by HPLC. Microsomes are a source of glucosylceramide synthase activity in the microsomal assay. A second assay is a cell based, phenotypic assay that monitors cell surface expression of the downstream lipid GM3 by antibody mediated immunofluorescence. Specific protocols are provided below.
(§2) This is a phenotypic assay that measures GM3 expression in B16 mouse melanoma or C32 human melanoma cells following treatment with test compounds. Cell surface GM3 expression is determined by antibody mediated fluorescence.
(§3) Compounds are diluted in media and plated in 384 well plates in DMSO. B16 and C32 cells are assayed at densities of 20,000 cells/ml and 62,500 cells/ml, respectively, per well. Each titration curve contains 10 points that are assayed in duplicate on each test run. The plates are incubated for 48 hours at 37° C., 5% CO2, and are then washed once with TBS. Anti-GM3 antibody is added to each well and the plates are then incubated for an additional one hour at room temperature. Plates are subsequently washed twice and incubated for an additional hour with the labeled secondary antibody. Following the final incubation, the plates are washed twice and the fluorescence at λex=D640/20 nm and λem=657 nm is detected on a fluorescent reader.
(§4) The results of the microsomal assays are expressed as “GCS IC50”, which represents the concentration of the compound causing 50% inhibition of glucosylceramide synthase activity. The results of the cell-based assays are expressed as “GM3 B16 IC50” or “GM3 C32 IC50” for the B16 assay and the C32 assay, respectively. These values represent the concentration of the compound causing 50% inhibition of GM3 expression on the cell surface.

[2] = tested on: GM3 expression in C32 human melanoma cells; test: GM3 fluorescent-linked immunosorbent assay (FLISA), C32 cells; format: cell-based; details: 48 hours
From the text: as §1, §2, §3, §4

[3] = tested on: GL-3, lyso-GL-3, GL-1 and GM3; test: Clinical study in Fabry disease patients: plasma and urine glycosphingolipids; format: in vivo, human; details: 15 mg/day oral
Experimental: (§5) A three-year open-label investigation of Compound 2 in young classic Fabry disease patients was conducted in order to evaluate the long-term safety, pharmacodynamics and exploratory efficacy of Compound 2 in adult male Fabry patients. Eleven subjects enrolled in the study, and seven subjects completed all aspects of the study. All subjects were males diagnosed with classic Fabry disease confirmed by genotype and residual alpha-galactosidase activity below detection levels (9 of the 11 had nonsense mutation in the GLA gene). All subjects had lyso-GL3 levels in plasma of at least 65 ng/mL and had no prior Fabry disease-specific treatment. The median age of subject was 24 years (range 19-37).
Each sample was scored independently by 3 pathologists for the presence of GL-3 inclusions on a four-point scale, and rated as 0 (no/trace), 1 (mild), 2 (moderate), or 3 (severe) according to Eng et al., N. Engl. J. Med. 345:9-16 (2001). A single score per patient per time point was derived by taking the score rated by the majority of the three pathologists. If a majority score could not be derived, then the median score was used (resulting in some fractional scores). […] Pain scores and abdominal symptoms were analyzed at baseline and weeks 12, 26, 52, 104 and 156 using the SF-36 scoring protocol. […]

[4] = tested on: adult male Fabry patients; test: Clinical study in Fabry disease patients: SF-36 bodily pain and abdominal pain; format: in vivo, human; details: 15 mg/day oral
Experimental: as §5
Each sample was scored independently by 3 pathologists for the presence of GL-3 inclusions on a four-point scale, and rated as 0 (no/trace), 1 (mild), 2 (moderate), or 3 (severe) according to Eng et al., N. Engl. J. Med. 345:9-16 (2001). A single score per patient per time point was derived by taking the score rated by the majority of the three pathologists. If a majority score could not be derived, then the median score was used (resulting in some fractional scores). Plasma samples were also analyzed for GL-3, lyso-GL-3, GL-1 and GM3 at baseline and weeks 12, 26, 52 and 156. […]
Patients were assessed using the Short Form-36 (SF-36) questionnaire on numerous visits from baseline to week 156. This is a 36-item questionnaire used to measure 8 various aspects of health (vitality, physical functioning, bodily pain, general health perceptions, physical role functioning, emotional role functioning, social role functioning and mental health). The score for each of the eight aspects ranges from 0 (maximum disability) to 100 (no disability), and thus, higher scores indicate good health condition. In addition, gastrointestinal symptoms, including abdominal pain, abdominal distention, and bowl movements, were assessed using a modified version of the inflammatory bowel severity scoring system. Particular questions asked as part of these assessments included: (1) whether the patient suffered abdominal pain within the last ten days, (2) what was the severity of abdominal pain suffered in the last ten days using a 0 (no pain) to 100 (very severe pain) scale, and (3) on how many days within the last ten days did the patient have abdominal pain.

CC(C)(NC(=O)O[C@@H]1CN2CCC1CC2)c1csc(-c2ccc(F)cc2)n1 [Compound 2, (S)-quinuclidin-3-yl 2-(2-(4-fluorophenyl)thiazol-4-yl)propan-2-ylcarbamate] was tested, and the IC50 [1] was 107 nM, the IC50 [2] was 9.6 nM and the “Urine GL-3 (mg per mmol urine creatinine), change from baseline” value ([3]; 26 weeks (n = 8)) was -0.25 mg/mmol. For the same molecule, the “Plasma GL-1, change from baseline” value ([3]; 26 weeks (n = 9)) was -3.26 µg/mL, the “Plasma GL-3, change from baseline” value ([3]; 26 weeks (n = 9)) was -3.62 µg/mL and the “Plasma GM3, change from baseline” value ([3]; 26 weeks (n = 9)) was -10.77 µg/mL. For the same molecule, the “Plasma lyso-GL-3, change from baseline” value ([3]; 26 weeks (n = 9)) was -30.99 ng/mL, the “Plasma GL-1, change from baseline” value ([3]; 52 weeks (n = 7)) was -3.58 µg/mL and the “Plasma GL-3, change from baseline” value ([3]; 52 weeks (n = 7)) was -5.06 µg/mL. For the same molecule, the “Plasma GM3, change from baseline” value ([3]; 52 weeks (n = 7)) was -8.84 µg/mL, the “Plasma lyso-GL-3, change from baseline” value ([3]; 52 weeks (n = 7)) was -37.10 ng/mL and the “Urine GL-3 (mg per mmol urine creatinine), change from baseline” value ([3]; 52 weeks (n = 7)) was -0.20 mg/mmol. For the same molecule, the “Plasma GL-1, change from baseline” value ([3]; 104 weeks (n = 7)) was -3.70 µg/mL, the “Plasma GL-3, change from baseline” value ([3]; 104 weeks (n = 7)) was -6.32 µg/mL and the “Plasma GM3, change from baseline” value ([3]; 104 weeks (n = 7)) was -9.92 µg/mL. For the same molecule, the “Plasma lyso-GL-3, change from baseline” value ([3]; 104 weeks (n = 7)) was -39.84 ng/mL, the “Urine GL-3 (mg per mmol urine creatinine), change from baseline” value ([3]; 104 weeks (n = 7)) was -0.18 mg/mmol and the “Plasma GL-1, change from baseline” value ([3]; 156 weeks (n = 7)) was -3.23 µg/mL. The “Plasma GL-3, change from baseline” value ([3]; 156 weeks (n = 7)) was -6.97 µg/mL, the “Plasma GM3, change from baseline” value ([3]; 156 weeks (n = 7)) was -8.12 µg/mL and the “Plasma lyso-GL-3, change from baseline” value ([3]; 156 weeks (n = 7)) was -48.13 ng/mL. For the same molecule, the “Urine GL-3 (mg per mmol urine creatinine), change from baseline” value ([3]; 156 weeks (n = 7)) was -0.18 mg/mmol, the “Plasma GL-3 levels” value ([3]; after 156 weeks) was 1.90 µg/mL and the “Plasma GL-3 reduction compared to agalsidase beta” value ([3]; at 104 weeks (p=0.0351) and 156 weeks (p=0.0081)) was “significantly greater”. For the same molecule, the “Drop in mean plasma GL-1 levels” value ([3]; over the 156-week study) was 69%, the “Drop in mean plasma GL-3 levels” value ([3]; over the 156-week study) was 77% and the “Drop in mean plasma GM3 levels” value ([3]; over the 156-week study) was 60%. For the same molecule, the “Drop in mean plasma lyso-GL3 levels” value ([3]; over the 156-week study) was 52%, the “Number of Patients Reporting Yes to Abdominal Pain in 10-Days Preceding Visit” value (from here on “Number of Patients Reporting Yes”) ([4]; 4 weeks) was 4/11 and the “Abdominal Pain Severity Score in 10-Days Preceding Visit (mean value, 0-100 scale)” value (“Abdominal Pain Severity Score” for short) ([4]; 4 weeks (n = 4)) was 29.75. For the same molecule, the “Number of Days within Preceding 10 Days with Abdominal Pain (mean value)” value (from here on “Number of Days within Preceding 10 Days”) ([4]; 4 weeks (n = 4)) was 2.50, the “Number of Patients Reporting Yes” value ([4]; 12 weeks) was 2/10 and the “Abdominal Pain Severity Score” value ([4]; 12 weeks (n = 2)) was 40.00. For the same molecule, the “Number of Days within Preceding 10 Days” value ([4]; 12 weeks (n = 2)) was 3.50, the “Number of Patients Reporting Yes” value ([4]; 26 weeks) was 3/9 and the “Abdominal Pain Severity Score” value ([4]; 26 weeks (n = 3)) was 31.33. The “Number of Days within Preceding 10 Days” value ([4]; 26 weeks (n = 3)) was 3.00, the “Number of Patients Reporting Yes” value ([4]; 52 weeks) was 2/7 and the “Abdominal Pain Severity Score” value ([4]; 52 weeks (n = 1)) was 21.00. The “Number of Days within Preceding 10 Days” value ([4]; 52 weeks (n = 3)) was 0.70, the “Number of Patients Reporting Yes” value ([4]; 104 weeks) was 2/7 and the “Abdominal Pain Severity Score” value ([4]; 104 weeks (n = 1)) was 21.00. For the same molecule, the “Number of Patients Reporting Yes” value ([4]; 156 weeks) was 2/7, the “Abdominal Pain Severity Score” value ([4]; 156 weeks (n = 2)) was 15.00 and the “Number of Days within Preceding 10 Days” value ([4]; 156 weeks (n = 2)) was 0.20. For the same molecule, the “Patients with decreased severity of abdominal pain, among those with gastrointestinal pain at baseline” value ([4]; week 26) was “four out of five”, the “Patients with improved overall bodily pain scores (SF-36)” value ([4]; week 26) was “Seven of nine” and the “Patients with reduced number of days with gastrointestinal pain” value ([4]; week 26) was “five of five”. The “Patients with decreased severity of abdominal pain, among those with gastrointestinal pain at baseline” value ([4]; week 156) was “four out of four”, the “Patients with improved overall bodily pain scores (SF-36)” value ([4]; week 156) was “three of six” and the “Patients with reduced number of days with gastrointestinal pain” value ([4]; week 156) was “three of four”.
